{"source": "paper PMC11003480", "about": "“Promising inhibition of diabetes-related enzymes and antioxidant properties of Ptilostemon casabonae leaves extract” (Journal of Enzyme Inhibition and Medicinal Chemistry, 2023)", "key": {"[1]": {"molecular_target": "Saccharomyces cerevisiae α-glucosidase", "experiment": "α-Glucosidase inhibition assay (pNPG substrate)", "format": "biochemical", "settings": "for α-Glucosidase Mode of inhibition: Lineweaver-Burk plot; for equilibrium constant for binding with the enzyme-substrate complex (KIS): from intercepts (1/Vmax) versus inhibitor concentration; for equilibrium constant for binding with the free enzyme (KI): from slope (Km/Vmax) versus inhibitor concentration", "procedure": "The concentrations of extract required to give 50% inhibition of enzyme activity (IC50) were determined. […] The Lineweaver-Burk double reciprocal plot was used to determine the mode of α-glucosidase inhibition by performing assays at different concentrations of substrate and extract or compound. Grafit 7 (Erithacus, East Grinstead, UK) was used as data analysis software. α-Glucosidase inhibitory activity was analysed following the method described by Delogu et al.[15]. […] It was first incubated for 15 min at 37 °C. Then, 20 µL of p-nitrophenyl α-D-glucopyranoside solution (pNPG, 5 mM) was added. After further 15 min of incubation at 37 °C, the reaction was stopped by adding 50 μL of 0.2 M sodium carbonate solution. α-Glucosidase activity was determined with a 96-well microplate reader by measuring the absorbance at 405 nm. The mode of inhibition was determined, and the equilibrium constant for binding with the enzyme–substrate complex (KIS) was obtained from the vertical intercepts plotted versus inhibitor concentration."}, "[2]": {"test_system": "Saccharomyces cerevisiae α-glucosidase", "set-up": "method as in PMID 25805337", "settings": "cited from earlier work"}, "[3]": {"experiment": "Ferric reducing antioxidant power assay (FRAP)", "settings": "ferrous equivalents; 4 min, absorbance 593 nm", "procedure": "Ferric reducing antioxidant power assay (FRAP) was conducted as previously described, with slight modifications. An amount of 10 µL of the extract was mixed with 2 ml of the TPTZ–ferric solution and than incubated for 4 min at room temperature in the dark. The absorbance was read at 593 nm and the result was expressed as ferrous equivalents (FE; mg Fe^2+ equivalents/mL solution). Ascorbic acid was used as reference compound."}, "[4]": {"experiment": "ABTS radical scavenging activity", "settings": "50% reduction of absorbance at 734 nm after 1 min", "procedure": "Briefly, the reaction between the reduced ABTS (7 mM) with potassium persulfate (2.45 mM) in an aqueous solution at room temperature for 24 h, was performed to produce free radical ABTS^.+. Then, different concentrations of extract (10 μL) were added to 1 ml of ABTS^.+, and the absorbance at 734 nm was recorded after 1 min. The activity was expressed as the concentration of sample necessary to give a 50% reduction in the original absorbance (EC50)."}}, "data": [{"smiles": "O=C(/C=C/c1ccc(O)c(O)c1)O[C@@H]1C[C@](OC(=O)/C=C/c2ccc(O)c(O)c2)(C(=O)O)C[C@@H](O)[C@H]1O", "note": "[1,5-Dicaffeoylquinic acid (9), 1,5-Dicaffeoylquinic acid]", "values": [{"measurement": "α-Glucosidase IC50", "setting": "[1]", "result": "36.64 ± 0.07", "unit": "µg/mL"}, {"measurement": "α-Glucosidase Mode of inhibition", "setting": "[1]", "result": "Uncompetitive"}, {"measurement": "equilibrium constant for binding with the enzyme-substrate complex (KIS)", "setting": "[1]", "result": 69.4, "unit": "µg/mL"}]}, {"smiles": "O=C(/C=C/c1ccc(O)c(O)c1)O[C@@H]1CC(O)(C(=O)O)C[C@@H](OC(=O)/C=C/c2ccc(O)c(O)c2)C1O", "note": "(stereo partly shown) [3,5-dicaffeoylquinic acid, 3,5-Dicaffeoylquinic acid]", "values": [{"measurement": "α-glucosidase inhibition (in words)", "setting": "[2]", "result": "able to inhibit this enzyme"}]}, {"smiles": "O=C(/C=C/c1ccc(O)c(O)c1)O[C@H]1[C@H](O)C[C@](O)(C(=O)O)C[C@H]1OC(=O)/C=C/c1ccc(O)c(O)c1", "note": "[4,5-dicaffeoylquinic acid]", "values": [{"measurement": "α-glucosidase inhibition (in words)", "setting": "[2]", "result": "able to inhibit this enzyme"}]}, {"smiles": "O=c1cc(-c2ccc(O)cc2)oc2cc(O)cc(O)c12", "note": "[Apigenin (23), Apigenin]", "values": [{"measurement": "α-Glucosidase IC50", "setting": "[1]", "result": "3.88 ± 1.48", "unit": "µg/mL"}, {"measurement": "α-Glucosidase Mode of inhibition", "setting": "[1]", "result": "Mixed"}, {"measurement": "α-Glucosidase Mode of inhibition", "setting": "[1]; listed as apigenin", "result": "mixed-type inhibition"}, {"measurement": "equilibrium constant for binding with the enzyme-substrate complex (KIS)", "setting": "[1]", "result": 19.6, "unit": "µg/mL"}, {"measurement": "equilibrium constant for binding with the free enzyme (KI)", "setting": "[1]", "result": 6.5, "unit": "µg/mL"}]}, {"smiles": "O=C1O[C@H]([C@@H](O)CO)C(O)=C1O", "note": "[Ascorbic acid]", "values": [{"measurement": "FRAP", "setting": "[3]", "result": "1.81 ± 0.13", "unit": "mg FE/mL"}]}, {"smiles": "O=C(/C=C/c1ccc(O)c(O)c1)O[C@@H]1C[C@](O)(C(=O)O)C[C@@H](O)[C@H]1O", "note": "[Chlorogenic acid (1), 5-O-Caffeoylquinic acid (Chlorogenic acid)]", "values": [{"measurement": "α-Glucosidase IC50", "setting": "[1]", "result": ">100", "unit": "µg/mL"}, {"measurement": "α-glucosidase inhibitory activity (in words)", "setting": "[1]", "result": "no inhibitory activity"}]}, {"smiles": "C[C@@H]1O[C@@H](OC[C@H]2O[C@@H](Oc3c(-c4ccc(O)c(O)c4)oc4cc(O)cc(O)c4c3=O)[C@H](O)[C@@H](O)[C@@H]2O)[C@H](O)[C@H](O)[C@H]1O", "note": "[Rutin (4), Quercetin 3-O-rutinoside (Rutin)]", "values": [{"measurement": "α-Glucosidase IC50", "setting": "[1]", "result": "20.54 ± 4.45", "unit": "µg/mL"}, {"measurement": "α-Glucosidase Mode of inhibition", "setting": "[1]", "result": "Mixed"}, {"measurement": "α-Glucosidase Mode of inhibition", "setting": "[1]; listed as rutin", "result": "mixed-type inhibition"}, {"measurement": "equilibrium constant for binding with the enzyme-substrate complex (KIS)", "setting": "[1]", "result": 80.2, "unit": "µg/mL"}, {"measurement": "equilibrium constant for binding with the free enzyme (KI)", "setting": "[1]", "result": 9.3, "unit": "µg/mL"}]}, {"smiles": "Cc1c(C)c2c(c(C)c1O)CCC(C)(C(=O)O)O2", "note": "(stereo not shown) [Trolox, 6-hydroxy-2,5,7,8-tetramethylchromane-2-carboxylic acid]", "values": [{"measurement": "ABTS EC50", "setting": "[4]", "result": "3.4 ± 0.3", "unit": "µg/mL"}]}]}
